Like-named read-outs stand apart in the source and are kept apart here.
Assays:
[1] = molecular target: MRP1 (Homo sapiens, UniProt P33527); test: Impact of MRP1 on cytotoxicity, MK-571 pre-treatment in A549 cells
Procedure: The impact of ABC transporters on the cytotoxicity of HDAC-C1A was assessed using cell lines with differential expression of the ABC transporters and by using inhibitors.

[2] = test system: HCT116 cells; test: Acetylated PTEN and PTEN expression; type: cell-based, human
Procedure: FIG. 12. HDAC-C1A treatment is associated with an increase of phopsho-AKT that can be reversed by PI3K/AKT/mTOR inhibitors. […] Similarly, Phospho-Pras 40 seems to increase following treatment with HDAC-C1A. Densitometry data could reinforce this statement (ratio between the total form and the Phospho form of Pras40 that decreases at 24 hours). […] No difference could be seen in endometrial cancer cell line, […]. C. […] E. BEZ-235 can fully reverse the increase of Phospho-AKT mediated by HDAC-C1A in HCT-116 cells. BEZ-235 and HDAC-C1A were co-incubated at the indicated time and concentrations.
FIG. 17. A. Dose and time impact of Tubastatin A on acetylated form of tubulin and histones H3 and H4 and on phospho-AKT levels that could be reversed with BEZ-235 in HCT-116 cells. […] HCT116 were immunoprecipitation with PTEN and stained with HDAC1 or HDAC6, immunoprecipitation with HDAC6 and stained with PTEN. No HDAC1 could have been detected in contrast with HDAC6. There was no effect of the different inhibitors on the different protein levels.
PTEN protein expression was not altered. In vivo, on the gene array, the mRNA levels of PTEN were not altered in HCT116 xenograft model following treatment with HDAC-C1A after 1 and 14 days when compared with vehicle treated group (FIG. 7).
We have shown that HDAC-C1A is associated with increased acetylation of α-tubulin, acetyl HSP90 and acetyl PTEN with only a minor effect on the regulation of the genes (less than 0.7% of the genes have been de-regulated after 14 days of treatment in vivo). We believe that the acetylation of PTEN, via the inhibition of HDAC6, leads to an increase of P-AKT. […] No effect of BEZ235 could be seen on the acetylated status of α-tubulin and histones H3 and H4.

[3] = test system: panel of 19 cancer cell lines; test: Growth inhibition, SRB assay, 72 hours; type: cell-based
[4] = test system: HCT116 xenograft; test: Differential gene expression, affymetrix human genome array; type: in vivo, mice
[5] = test system: IGROV-1; test: Phospho-AKT levels by western blotting; type: cell-based; conditions: ovarian cancer cell line IGROV-1
[6] = test system: HDAC from HeLa cell extract; test: Irreversible HDAC inhibition, HeLa nuclear extracts; type: biochemical
Procedure: FIG. 1. HDAC-C1A irreversible activity. A. […] inhibitory activity of HDAC-C1A was tested using HeLa nuclear extracts and compared to the negative (reversible) control HDAC-C1B. B Growth inhibitory effect of the different compounds in HCT-116 cells at indicated time and compared to growth inhibitory after 72 hours of incubation.
HSP90 protein expression was not altered (FIG. 2).

[7] = Stability in PBS at acidic pH, HPLC-UV; type: physicochemical; conditions: down to pH 2, cell free, 10 μM in PBS, 1 hour, 37° C.
Procedure: FIG. 3. Impact of the pH on the stability of HDAC-C1A. HDAC-C1A was incubated at 10 μM in PBS for 1 hour at 37° C. and the concentration was evaluated using HPLC-UV. The pH of PBS was adjusted using HCL.
The drug was stable after oral, parenteral and intravenous administration for 24 h (last time point examined). […] The Cma and AUC0-24h following i.p. injection (20 mg/kg) were 3.2 μg/mL and 11.2 μg/mL*h, respectively. […] The acid instability of HDAC-C1A could therefore be improved by enteric coating as a means to avoid breakdown in the stomach. […] HDAC-C1A was also tested in HCT116 human colon cancer xenograft model using a refined dose and scheduling. […] This dose was non-toxic (no reduction in body weight) (FIG. 5.D). The acetylated form of α-tubulin (biomarker of response to HDAC6 inhibition) could be observed after 14 days of treatment and could be detected as early as 6 hours after the 1st injection (FIG. 5.E.). The acetylated form of Histone 3 (biomarker of response of class I histones) could be observed as early as 2 hours after the 1st injection and remain after 14 days of treatment (FIG. 5.E).

[8] = test system: MCF7; test: Phospho-AKT levels by western blotting; type: cell-based; conditions: breast cancer cell line MCF7
[9] = test system: HCT116 human colon cancer xenograft
[10] = 14 days, 40 mg/kg every other day
[11] = HDAC-C1A 20 mg/kg bid combined with API-2 1 mg/kg/d
[12] = HDAC-C1A combined with BEZ-235 20 mg/kg/day, given 8 hours apart

Chain of MRP1 (P33527 whole entry): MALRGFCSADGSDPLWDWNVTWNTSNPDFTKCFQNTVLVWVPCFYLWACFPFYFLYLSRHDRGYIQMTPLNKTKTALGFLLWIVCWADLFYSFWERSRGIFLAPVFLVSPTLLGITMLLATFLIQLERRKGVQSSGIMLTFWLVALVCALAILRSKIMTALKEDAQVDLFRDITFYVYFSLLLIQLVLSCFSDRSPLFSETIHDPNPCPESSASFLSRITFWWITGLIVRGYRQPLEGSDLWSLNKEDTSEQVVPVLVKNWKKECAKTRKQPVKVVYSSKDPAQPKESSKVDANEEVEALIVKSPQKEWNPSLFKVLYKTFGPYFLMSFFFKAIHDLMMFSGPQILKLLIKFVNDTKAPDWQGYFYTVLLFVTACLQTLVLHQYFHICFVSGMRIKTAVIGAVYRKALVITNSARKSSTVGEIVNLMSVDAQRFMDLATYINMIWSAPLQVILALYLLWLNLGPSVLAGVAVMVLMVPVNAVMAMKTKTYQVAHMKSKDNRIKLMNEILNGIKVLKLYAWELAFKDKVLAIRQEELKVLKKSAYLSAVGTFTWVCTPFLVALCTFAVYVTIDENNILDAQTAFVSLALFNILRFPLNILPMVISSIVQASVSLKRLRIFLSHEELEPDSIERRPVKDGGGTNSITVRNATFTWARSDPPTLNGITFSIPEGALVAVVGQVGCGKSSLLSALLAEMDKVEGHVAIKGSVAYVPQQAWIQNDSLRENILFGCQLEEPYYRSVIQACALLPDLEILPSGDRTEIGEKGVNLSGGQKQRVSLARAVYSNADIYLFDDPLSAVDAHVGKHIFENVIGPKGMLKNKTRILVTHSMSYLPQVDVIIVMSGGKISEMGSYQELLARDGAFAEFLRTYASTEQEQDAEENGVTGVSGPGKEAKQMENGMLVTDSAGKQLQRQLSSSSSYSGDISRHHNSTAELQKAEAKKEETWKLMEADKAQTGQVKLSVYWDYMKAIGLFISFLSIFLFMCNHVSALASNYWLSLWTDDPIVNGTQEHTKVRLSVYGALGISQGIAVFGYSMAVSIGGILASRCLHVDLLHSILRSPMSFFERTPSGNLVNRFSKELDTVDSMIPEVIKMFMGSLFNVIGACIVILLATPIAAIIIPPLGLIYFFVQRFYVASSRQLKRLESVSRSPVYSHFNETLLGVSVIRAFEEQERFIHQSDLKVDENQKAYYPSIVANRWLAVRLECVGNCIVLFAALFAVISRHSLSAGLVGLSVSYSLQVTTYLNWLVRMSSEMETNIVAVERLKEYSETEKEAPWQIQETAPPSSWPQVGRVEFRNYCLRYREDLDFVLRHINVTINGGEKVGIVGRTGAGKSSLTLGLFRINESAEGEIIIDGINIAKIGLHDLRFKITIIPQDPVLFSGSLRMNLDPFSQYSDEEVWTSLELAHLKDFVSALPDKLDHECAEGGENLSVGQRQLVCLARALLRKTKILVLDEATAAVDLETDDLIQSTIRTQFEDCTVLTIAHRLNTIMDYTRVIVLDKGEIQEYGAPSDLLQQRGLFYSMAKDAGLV

SMILES: CC(/C=C/C(=O)NO)=C\c1ccc(NS(=O)(=O)c2ccc(N(CCCl)CCCl)cc2)cc1 [HDAC-C1A]
- substrate of MRP1 [1]: non-substrates
- PTEN protein expression [2]: not altered
- acetyl form of PTEN ([2]; 4 h and 24 h, 1 μM and 10 μM): dose and time dependent increase
- mean GI50 [3]: 2 ± 0.4 µg/mL
- number of genes deregulated (of 20 000 tested) ([4]; 24 hours, 40 mg/kg): 20 genes
- number of genes up-regulated ([4]; 24 hours, 40 mg/kg): 17
- ALDH1 up-regulation ([4]; 14 days of treatment): ~1.6 fold
- Gasdermin D up-regulation ([4]; 14 days of treatment): ~1.5 fold
- K AZ up-regulation ([4]; 14 days of treatment): ~1.5 fold
- KLK3 down-regulation ([4]; 14 days of treatment): ~1.5 fold
- RAD23B up-regulation ([4]; 14 days of treatment): ~1.8 fold
- SYNDECAN-2 down-regulation ([4]; 14 days of treatment): ~1.7 fold
- UNG up-regulation ([4]; 14 days of treatment): ~1.7 fold
- number of genes deregulated by at least 1.5 fold [4, 10]: 132 genes
- share of genes deregulated [4, 10]: < 0.7%
- mRNA levels of PTEN vs vehicle ([4]; after 1 and 14 days): not altered
- P-AKT levels [5]: increased
- mode of HDAC inhibition [6]: irreversibly inhibited
- stability across acidic pH [7]: relative acidic degradation
- P-AKT levels [8]: increased
- TGD2x [9, 11]: 2.7 ± 1.3 days
- TGI compared with vehicle [9, 11]: 54%
- TGD2x ([9]; HDAC-C1A alone 20 mg/kg/day): 3.8 ± 1.3 days
- TGI ([9]; HDAC-C1A alone 20 mg/kg/day): 69%
- TGD2x [9, 12]: 8.2 ± 1.3 days
- TGI [9, 12]: 74%
- TGI ([9]; HDAC-C1A combined with BEZ-235, given 30 minutes apart): 115%
- TGD2x ([9]; i.p. 20 mg/kg b.i.d.): 5.7 ± 1.4 days
- TGI compared with vehicle ([9]; i.p. 20 mg/kg b.i.d.): 78%
- toxicity (body weight) ([9]; i.p. 20 mg/kg b.i.d.): non-toxic

— patent US20140294856A1, “COMBINATION TREATMENT COMPRISING A HDAC6 INHIBITOR AND AN AKT INHIBITOR” (priority 2011, published 2014)
